Source: US9688651B2, “Geranyl geranyl acetone analogs and uses thereof” (NYKEN Holding B.V., priority 2012, dated 2017)

What was measured:
[1] = tested on: MCF-7 breast cancer cells; experiment: MCF-7 cell death, ratio death/living cells (trypan blue); assay type: cell-based, human; set-up: key to Cell Death MCF-7 cancer cells Death/living 100 μM: 0 = no dead cells; + = P < 0.05; ++ = P < 0.01; +++ = P < 0.001; settings: 100 μM; 16-20 hours; trypan blue
Method: MCF-7 breast cancer cells were cultured in DMEM supplemented with 10% FCS. […] Ratio death and living cells was determined by using trypan blue staining of death cells. The cell pellets were lysed in RIPA buffer and used for Western blot analysis.
Since we observed that some compounds aggravate tachypacing-induced contractile dysfunction, we next investigated if these compounds can induce programmed cell death in a human breast cancer cell-line MCF-7. […] In total 28 compounds were tested for cell death. […] GGA was used as a control as well as non-treated MCF-7 cells. […] The findings indicate that GGA-like compounds which aggravate heart failure can induce programmed cell death in MCF-7 breast cancer cell-line.

HSP70 [2] = experiment: HSP70 Western blot in MCF-7 cells; assay type: cell-based, human; set-up: key: + = P < 0.05; ++ = P < 0.01; +++ = P < 0.001; settings: MCF-7 lysate, 16-20 hours
Method: (§1) MCF-7 breast cancer cells were cultured in DMEM supplemented with 10% FCS. Test compounds were added to the medium in a final concentration of […] for 16-20 hours. Ratio death and living cells was determined by using trypan blue staining of death cells. The cell pellets were lysed in RIPA buffer and used for Western blot analysis.
(§2) Western-blot analysis was performed as described previously^3, 10. Equal amount of protein in SDS-PAGE sample buffer was sonicated before separation on 10% PAA-SDS gels. After transfer to nitrocellulose membranes (Stratagene, The Netherlands), membranes were incubated with primary antibodies against HSP25 (Stressgen, The Netherlands, SPA-801, 1:1000), HSP27 (Stressgen, SPA-800, 1:1000), HSP70 (Stressgen, SPA-810, 1:1000), GAPDH (Affinity Reagents, The Netherlands) or PARP (Santa Cruz, The Netherlands, sc-7150, 1:500). Horseradish peroxidase-conjugated anti-mouse or anti-rabbit (Santa-Cruz Biotechnology, The Netherlands) was used as secondary antibody. Signals were detected by the ECL-detection method (Amersham, The Netherlands) and quantified by densitometry using GeneTools software from Syngene (The Netherlands).

PARP = PARP cleavage in MCF-7 cells (Western blot); assay type: cell-based, human; set-up: key to Cell Death MCF-7 cancer cells PARP: 0 = no dead cells; + = P < 0.05; ++ = P < 0.01; +++ = P < 0.001; settings: MCF-7 lysate, Western blot, 16-20 hours
Method: as §1, §2
Since we observed that some compounds aggravate tachypacing-induced contractile dysfunction, we next investigated if these compounds can induce programmed cell death in a human breast cancer cell-line MCF-7. Hereto, MCF-7 cells were incubated for 16 hours with 10 μM of a test compound after which the number of death and living cells was determined. In total 28 compounds were tested for cell death. […] GGA was used as a control as well as non-treated MCF-7 cells. […] The findings indicate that GGA-like compounds which aggravate heart failure can induce programmed cell death in MCF-7 breast cancer cell-line.

HSP70 [3] = experiment: HSP70 protein boosting in HL-1 cardiomyocytes after mild heat shock (Western blot); assay type: cell-based, mouse; set-up: key to HSP boosting HL-1 cardiomyocytes Protein HSP70: 0 = no induction HSP levels; + = 2-10-fold induction; ++ = 10-30-fold induction; +++ = > 30-fold induction; settings: for HSP boosting HL-1 cardiomyocytes Protein HSP70: mild heat shock 44°C 10 min, then compound 10 μM for 6 hours, Western blot; for induction of mammalian HSP70 protein expression: HL-1, mild heat shock, 10 μM, 6 hours
Method: HL-1 atrial myocytes, a cell line derived from adult mouse atria were obtained from Dr. William Claycomb (Louisiana State University, New Orleans, La., USA). The myocytes were maintained in Complete Claycomb Medium (JRH, UK) supplemented with 100 μM norepinephrine stock (consisting of 10 mM norepinephrine (Sigma, The Netherlands) dissolved in 0.3 mM L-ascorbic acid (Sigma)), 4 mM L-glutamine (Gibco, The Netherlands) and 10% FBS (Sigma). The myocytes were cultured in flasks coated with 0.02% gelatin (Sigma), in a 5% CO2 atmosphere at 37° C.
HL-1 cardiomyocytes were subjected to a mild heat shock of 44° C. for 10 minutes. After a recovery of 10 minutes (37 degrees 5% CO2), compounds were added in a final concentration of 10 μM (dissolved in DMSO, final concentration 0.1%). To control myocytes, 0.1% DMSO was added. After six hours the cells were lysed in RIPA buffer and used for Western blotting as described previously.^3, 10
as §2
Compounds were also screened for HSP70 boosting effects. Hereto, HL-1 cardiomyocytes were first subjected to a mild heat shock which activates the Heat Shock Factor. After the mild heat shock, compound (10 μM) was added to the medium of HL-1 cardiomyocytes for 6 hours, followed by determination of the HSP70 amount.

HSP70 [4] = experiment: Hsp70 induction in murine proximal tubule (MPT) cells (Western blot); assay type: cell-based; settings: 40 μM, 5 hours, outperformed positive control GGA
Method: Murine proximal tubule (MPT) cells were isolated and cultured as described previously (Borkan et al. Heat stress ameliorates ATP depletion-induced sublethal injury in mouse proximal tubule cells. Am. J. Physiol. 1997; F347-55).
The MPT cells were exposed to 40 μM of compound for 5 hours, after which the cells were harvested in RIPA buffer followed by Western blotting.
For Western-blot analysis, equal amount of protein in SDS-PAGE sample buffer was separated on 10% PAA-SDS gels. After transfer to nitrocellulose membranes (Stratagene, USA), membranes were incubated with primary antibodies against HSP70 (Enzo C92F3A/StressGen SP810) or beta-actin (Sigma A541). Horseradish peroxidase-conjugated anti-mouse or anti-sheep (Jackson ImmunoRes) was used as secondary antibody. Signals were detected by the ECL-detection method (Amersham).

HSP27 = HSP27 Western blot in MCF-7 cells; assay type: cell-based, human; set-up: key: + = P < 0.05; ++ = P < 0.01; +++ = P < 0.001; settings: MCF-7 lysate, 16-20 hours
Method: as §1, §2

HSP70 [5] = experiment: HSP70 mRNA (qPCR) in HL-1 cardiomyocytes after mild heat shock; assay type: cell-based, mouse; settings: then compound 10 μM for 6 hours
Method: (§3) HL-1 cardiomyocytes were subjected to a mild heat shock of 44° C. for 10 minutes. After a recovery of 10 minutes (37 degrees 5% CO2), compounds were added in a final concentration of 10 μM (dissolved in DMSO, final concentration 0.1%). To control myocytes, 0.1% DMSO was added. After six hours the cells were lysed in RIPA buffer and used for Western blotting as described previously.^3, 10 Compounds were also screened for their ability to upregulate HSP gene expression. Hereto, HL-1 cardiomyocytes were first subjected to a mild heat shock which activates the Heat Shock Factor. After the mild heat shock, compound (10 μM) was added to the medium of HL-1 cardiomyocytes for 6 hours, followed by determination of HSP70, HSP25, HSP90 and HSP40 which are targets of the heat shock factor 1 (HSF1) transcription factor. In addition, we determined mRNA levels of the gene encoding the glucose-responsive protein 78 (Grp78) which is HSF1-independent.

HSP25 = HSP25 mRNA (qPCR) in HL-1 cardiomyocytes after mild heat shock; assay type: cell-based, mouse; settings: then compound 10 μM for 6 hours
Method: as §3

[6] = tested on: glucose-responsive protein 78 (Grp78); experiment: Grp78 mRNA (qPCR, HSF1-independent) in HL-1 cardiomyocytes; assay type: cell-based, mouse; set-up: key to HSP boosting HL-1 cardiomyocytes mRNA (qPCR) Grp78 Not HSF1: 0 = no induction HSP levels; + = 2-10-fold induction; ++ = 10-30-fold induction; +++ = > 30-fold induction; settings: for HSP boosting HL-1 cardiomyocytes mRNA (qPCR) Grp78 Not HSF1: mild heat shock, then compound 10 μM for 6 hours; for upregulation of Grp78 mRNA: HL-1, mild heat shock, 10 μM, 6 hours
Method: as §3

HSP90 = HSP90 mRNA (qPCR) in HL-1 cardiomyocytes after mild heat shock; assay type: cell-based, mouse; settings: then compound 10 μM for 6 hours
Method: as §3

HSP40 = HSP40 mRNA (qPCR) in HL-1 cardiomyocytes after mild heat shock; assay type: cell-based, mouse; settings: then compound 10 μM for 6 hours
Method: as §3

[7] = tested on: HSP70, HSP25, HSP90 and HSP40; experiment: Upregulation of HSP gene expression (HSF1 targets) in HL-1 cardiomyocytes; assay type: cell-based, mouse; settings: HL-1, mild heat shock, 10 μM, 6 hours
Method: as §3

## CC(C)=CCC/C(C)=C/CCc1cc(C)[nH]n1 [Compound 32]
[1]
  Cell Death MCF-7 cancer cells Death/living 100 μM: 0
HSP70 [2]
  Cell Death MCF-7 cancer cells HSP 70: 0
PARP
  Cell Death MCF-7 cancer cells PARP: 0
HSP70 [3]
  HSP boosting HL-1 cardiomyocytes Protein HSP70: + (+ = 2-10-fold induction)
HSP70 [4]
  induction of HSP70 expression in renal (MPT) cells: strong inducers
HSP27
  Cell Death MCF-7 cancer cells HSP 27: + (+ = P < 0.05)

## CCOC(=O)C(CC)C(=O)CC/C=C(\C)CCC=C(C)C (centres unmarked) [Compound 69]
HSP70 [3]
  HSP boosting HL-1 cardiomyocytes Protein HSP70: 0
HSP70 [4]
  induction of HSP70 expression in renal (MPT) cells: strong inducers

## CC(=O)CC/C=C(\C)CC/C=C(\C)CC/C=C(\C)CCC=C(C)C [GGA, (5E,9E,13E)-6,10,14,18-tetramethylnonadeca-5,9,13,17-tetraen-2-one, reference compound]
[1]
  Cell Death MCF-7 cancer cells Death/living 100 μM: 0
HSP70 [5]
  HSP boosting HL-1 cardiomyocytes mRNA (qPCR) HSP 70: + (+ = 2-10-fold induction)
HSP25
  HSP boosting HL-1 cardiomyocytes mRNA (qPCR) HSP 25: ++ (++ = 10-30-fold induction)
HSP70 [2]
  Cell Death MCF-7 cancer cells HSP 70: 0
[6]
  HSP boosting HL-1 cardiomyocytes mRNA (qPCR) Grp78 Not HSF1: 0
PARP
  Cell Death MCF-7 cancer cells PARP: 0
HSP70 [3]
  HSP boosting HL-1 cardiomyocytes Protein HSP70: ++ (++ = 10-30-fold induction)
HSP90
  HSP boosting HL-1 cardiomyocytes mRNA (qPCR) HSP 90: ++ (++ = 10-30-fold induction)
HSP40
  HSP boosting HL-1 cardiomyocytes mRNA (qPCR) HSP 40: + (+ = 2-10-fold induction)
HSP27
  Cell Death MCF-7 cancer cells HSP 27: + (+ = P < 0.05)

## CC(=O)OC/C=C(\C)CC/C=C(\C)COC1CCCCO1 (centres unmarked) [Compound 106]
HSP70 [4]
  induction of HSP70 expression in renal (MPT) cells: strong inducers

## CCOC(=O)C(C)(C)C(=O)CC/C=C(\C)CCC=C(C)C [Compound 76, (E)-ethyl 2,2,7,11-tetramethyl-3-oxododeca-6,10-dienoate]
HSP70 [5]
  HSP boosting HL-1 cardiomyocytes mRNA (qPCR) HSP 70: +++ (+++ = > 30-fold induction)
HSP25
  HSP boosting HL-1 cardiomyocytes mRNA (qPCR) HSP 25: ++ (++ = 10-30-fold induction)
[6]
  upregulation of Grp78 mRNA: no upregulation
  HSP boosting HL-1 cardiomyocytes mRNA (qPCR) Grp78 Not HSF1: 0
[7]
  induction of HSP gene expression: strong inducers
HSP70 [3]
  induction of mammalian HSP70 protein expression: potent inducers
  HSP boosting HL-1 cardiomyocytes Protein HSP70: +++ (+++ = > 30-fold induction)
HSP90
  HSP boosting HL-1 cardiomyocytes mRNA (qPCR) HSP 90: ++ (++ = 10-30-fold induction)
HSP40
  HSP boosting HL-1 cardiomyocytes mRNA (qPCR) HSP 40: + (+ = 2-10-fold induction)

## CC(=O)N[C@@H](C)C(=O)NC/C=C(\C)CCC=C(C)C [Compound 95]
HSP25
  HSP boosting HL-1 cardiomyocytes mRNA (qPCR) HSP 25: + (+ = 2-10-fold induction)
[6]
  HSP boosting HL-1 cardiomyocytes mRNA (qPCR) Grp78 Not HSF1: 0
HSP70 [3]
  induction of mammalian HSP70 protein expression: potent inducers
  HSP boosting HL-1 cardiomyocytes Protein HSP70: +++ (+++ = > 30-fold induction)
HSP90
  HSP boosting HL-1 cardiomyocytes mRNA (qPCR) HSP 90: ++ (++ = 10-30-fold induction)
HSP40
  HSP boosting HL-1 cardiomyocytes mRNA (qPCR) HSP 40: + (+ = 2-10-fold induction)
HSP70 [4]
  induction of HSP70 expression in renal (MPT) cells: strong inducers

## CC(C)=CCC/C(C)=C/CN1C(=O)CCC1=O [Compound 47]
HSP70 [4]
  induction of HSP70 expression in renal (MPT) cells: strong inducers

## CCOC(=O)CC(=O)c1ccccc1O [Compound 60, Ethyl 3-(2-hydroxyphenyl)-3-oxopropanoate]
[6]
  upregulation of Grp78 mRNA: no upregulation
[7]
  induction of HSP gene expression: strong inducers
HSP70 [3]
  induction of mammalian HSP70 protein expression: potent inducers

## CC(C)=CCC/C(C)=C/CNC(=O)CN(C)C [Compound 49]
[1]
  Cell Death MCF-7 cancer cells Death/living 100 μM: 0
HSP25
  HSP boosting HL-1 cardiomyocytes mRNA (qPCR) HSP 25: +++ (+++ = > 30-fold induction)
HSP70 [2]
  Cell Death MCF-7 cancer cells HSP 70: 0
[6]
  HSP boosting HL-1 cardiomyocytes mRNA (qPCR) Grp78 Not HSF1: 0
PARP
  Cell Death MCF-7 cancer cells PARP: 0
HSP70 [3]
  induction of mammalian HSP70 protein expression: potent inducers
  HSP boosting HL-1 cardiomyocytes Protein HSP70: +++ (+++ = > 30-fold induction)
HSP90
  HSP boosting HL-1 cardiomyocytes mRNA (qPCR) HSP 90: +++ (+++ = > 30-fold induction)
HSP40
  HSP boosting HL-1 cardiomyocytes mRNA (qPCR) HSP 40: +++ (+++ = > 30-fold induction)
HSP70 [4]
  induction of HSP70 expression in renal (MPT) cells: strong inducers
HSP27
  Cell Death MCF-7 cancer cells HSP 27: 0
